Measurements reported in PubChem BioAssay AID365 (MTDP, 2006).
The source made the active and inactive calls. No rule for the calls is given here.

target: Ribonuclease HI (Escherichia coli (strain K12)) (UniProt P0A7Y4); assay: E. coli RNase HI inhibitors, dose response, biochemical, FRET RNA/DNA duplex cleavage (AID 365); settings: E. coli RNase H, FRET RNA/DNA cleavage fluorescence
Sequence (P0A7Y4 whole entry, looked up): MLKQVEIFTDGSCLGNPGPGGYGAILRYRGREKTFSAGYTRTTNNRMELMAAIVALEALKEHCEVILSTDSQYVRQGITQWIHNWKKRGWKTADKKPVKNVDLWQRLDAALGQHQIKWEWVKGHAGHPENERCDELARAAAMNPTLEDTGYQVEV

| IC50 | SMILES |
| --- | --- |
| > 100 µM (inactive) | Oc1cc(O)c2c(c1)OC(c1ccc(O)c(O)c1)C(OC1(c3cc(O)c(O)c(O)c3)Oc3cc(O)cc(O)c3C(O)C1O)C2 (configuration not stated) |
| inactive | O=C1c2ccc(O)cc2C(=O)c2c1ccc(O)c2O |
| inactive | O=C(N/N=C/c1ccccc1Cl)c1cc(O)c(O)c(O)c1 |
| > 100 µM (inactive) | Nc1cc(S(N)(=O)=O)ccc1SSc1ccc(S(N)(=O)=O)cc1N |
| > 100 µM (inactive) | CC1=C(C)CC(C(=O)Nc2ccc(N3C(=O)c4ccccc4C3=O)cc2)C(C(=O)O)C1 (configuration not stated) |
| inactive | O=C1C(Cl)=C/C(=N\S(=O)(=O)c2ccccc2)C(Cl)=C1Cl |
| > 100 µM (inactive) | CCc1c(O)c2c(c(O)c1C(C)=O)C(=O)c1c(cc(O)c(C(=O)O)c1C(=O)O)C2=O |
| 100 µM | CC(C)=CCc1ccc(O)c(=O)cc1C(C)C |
| 4.4 µM | O=C1NC(=S)S/C1=C/c1cccc(OCc2ccc(Cl)c(Cl)c2)c1 |
| 2.1 µM | CC(C)=CCC[C@]1(C)[C@@H](CC=C(C)C)C[C@@]2(CC=C(C)C)C(=O)/C(=C(\O)c3ccc(O)c(O)c3)C(=O)[C@]1(CC=C(C)C)C2=O |
| 0.8 µM | O=C1Nc2ccc(I)cc2C1(O)N1CCOCC1 (configuration not stated) |
| 80 µM | O=C1C(Cl)=C(Nc2ccc(S(=O)(=O)Nc3ccccn3)cc2)C(=O)c2ccccc21 |
| 8.8 µM | O=C1C=CC(=O)C(c2cccc(Cl)c2)=C1 |
| 2 µM | Cc1ccc(N2C(=O)/C(=C/c3ccc(O)c(O)c3)SC2=S)cc1C |
| 6.2 µM | CCOc1cccc(N2C(=O)/C(=C/c3cn(CC(=O)OC)c4ccccc34)C(=O)NC2=S)c1 |
| inactive | C=Cc1c(C)c2cc3[nH]c(cc4nc(cc5nc(cc1[nH]2)C(C)=C5CCC(=O)O)C(CCC(=O)O)=C4C)c(C)c3C=C |
| 8 µM | O=C1/C(=C/c2ccc(O)c(O)c2)SC(=S)N1c1ccc(O)cc1 |
| inactive | C=CCn1c(N)c(-c2nc3ccccc3[nH]2)sc1=S |

| IC50 | SMILES |
| --- | --- |
| > 100 µM (inactive) | Oc1cc(CN2COc3ccccc32)c(O)cc1CNC1CCCCC1 |
| > 100 µM (inactive) | NC(=O)c1c(N)sc2c1CCCCC2 |
| 0.8 µM | O=c1[nH]c(=S)n(-c2ccccc2F)c(O)c1C=C1C=CC=N1 |
| inactive | Cc1sc(NC(=O)c2ccco2)c(C(N)=O)c1C |
| inactive | O=C1C(Cl)=C/C(=N\S(=O)(=O)c2ccc(Cl)cc2)C(Cl)=C1Cl |
| 7.8 µM | O=C(Oc1ccccc1)Oc1c(Cl)cc2oc(=O)sc2c1Cl |
| inactive | C[C@]12CC[C@H]3[C@@H](CCC4=CC(=O)CC[C@@]43C)[C@@H]1CC[C@@H]2C(=O)COS(=O)(=O)c1ccc(Br)cc1 |
| 0.95 µM | COc1cc(/C=N\c2sc3c(c2C(=O)NCc2ccccc2)CCCC3)cc(Cl)c1O |
| 0.26 µM | COc1ccccc1NC(=O)c1c(NC(=O)Cc2ccccc2)sc2c1CCCCC2 |
| 1.2 µM | N#C/C(=C\Nc1ccc(S(=O)(=O)Nc2nccs2)cc1)c1nc(-c2ccc(Cl)cc2)cs1 |
| inactive | O=c1c(O)c(-c2ccc(O)c(O)c2)oc2cc(O)cc(O)c12 |
| inactive | O=[N+]([O-])c1cc(Cc2cc([N+](=O)[O-])c3cccnc3c2O)c(O)c2ncccc12 |
| inactive | Nc1ccc(S(=O)(=O)O)c2cccc(O)c12 |
| 3 µM | O=[N+]([O-])c1ccc2c(N=Nc3ccc4ccccc4c3O)c(O)cc(S(=O)(=O)O)c2c1 |
| inactive | O=C1C(Cl)=CC(=NS(=O)(=O)c2ccccc2)C=C1Cl |
| inactive | C=C/C(C)=C/C[C@]1(C)[C@H](C)CC[C@@]23C(=C[C@H](OC(=O)c4ccc(O)c(OC)c4)C[C@@H]12)[C@@H](OC(C)=O)O[C@H]3OC(C)=O |
| 0.33 µM | CCOc1ccc(NC(=O)c2c(NC(=O)c3ccccc3)sc3c2CCCCC3)cc1 |

| SMILES | IC50 |
| --- | --- |
| COC([CH2][Hg][n]1cnc2c1c(=O)n(C)c(=O)n2C)CN1C(=O)c2ccccc2S1(=O)=O (configuration not stated) | inactive |
| O=C1C=CC(=O)C(c2cc(Cl)ccc2Cl)=C1 | 9.2 µM |
